# Data reported in the supplement of paper PMC10307832.
# Assays:
# Assay in all cases: relative viability (nuclei count vs DMSO), 5 days (fraction); higher = more cells survive
# HOP-62 = system: HOP-62
# Outline: (§1)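 Relative viability divides the nuclei count in treated wells by that in vehicle wells. Lung cancer cell lines were seeded in 1536-well plates, dosed by pin tool the next day, and fixed and stained after 5 days in one step with final 0.05% Triton X-100, 1% formaldehyde and 1 ug/ml Hoechst. Dosing was a single drug or a fixed anchor-drug dose plus five library-drug doses (not always all listed) in √10 steps, and values are medians of duplicate plates imaged at 4×.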
# ChaGo-K-1 = system: ChaGo-K-1
# Outline: as §1
# COR-L23 = system: COR-L23
# Outline: as §1
# ABC-1 = system: ABC-1
# Outline: as §1
# EMC-BAC-2 = system: EMC-BAC-2
# Outline: as §1
# NCI-H838 = system: NCI-H838
# Outline: as §1
# NCI-H2126 = system: NCI-H2126
# Outline: as §1
# NCI-H1993 = system: NCI-H1993
# Outline: as §1
# SK-LU-1 = system: SK-LU-1
# Outline: as §1
# HCC-366 = system: HCC-366
# Outline: as §1
# NCI-H358 = system: NCI-H358
# Outline: as §1
# NCI-H23 = system: NCI-H23
# Outline: as §1
# NCI-H2023 = system: NCI-H2023
# Outline: as §1
# NCI-H1944 = system: NCI-H1944
# Outline: as §1
# HCC-78 = system: HCC-78
# Outline: as §1
# NCI-H1793 = system: NCI-H1793
# Outline: as §1
# NCI-H1395 = system: NCI-H1395
# Outline: as §1
# NCI-H2228 = system: NCI-H2228
# Outline: as §1
# NCI-H2405 = system: NCI-H2405
# Outline: as §1
# HCC-15 = system: HCC-15
# Outline: as §1
# HARA = system: HARA
# Outline: as §1
# LC-2-ad = system: LC-2-ad
# Outline: as §1
smiles,measurement,setting,value
Cc1sc2c(c1C)C(c1ccc(Cl)cc1)=N[C@@H](CC(=O)OC(C)(C)C)c1nnc(C)n1-2 [JQ1] + CS(=O)(=O)N1CCN(Cc2cc3nc(-c4cccc5[nH]ncc45)nc(N4CCOCC4)c3s2)CC1 [Pictilisib] (partner 1 µM),relative viability,HOP-62; first compound 0.04 µM,0.815
same,relative viability,HOP-62; first compound 0.1265 µM,0.56
same,relative viability,HOP-62; first compound 0.4 µM,0.249
same,relative viability,HOP-62; first compound 1.265 µM,0.0959
same,relative viability,HOP-62; first compound 4 µM,0.101
same,relative viability,ChaGo-K-1; first compound 0.04 µM,0.752
same,relative viability,ChaGo-K-1; first compound 0.4 µM,0.658
same,relative viability,ChaGo-K-1; first compound 1.265 µM,0.407
same,relative viability,ChaGo-K-1; first compound 4 µM,0.43
same,relative viability,COR-L23; first compound 0.04 µM,0.805
same,relative viability,COR-L23; first compound 0.1265 µM,0.692
same,relative viability,COR-L23; first compound 0.4 µM,0.524
same,relative viability,COR-L23; first compound 1.265 µM,0.3
same,relative viability,COR-L23; first compound 4 µM,0.202
same,relative viability,ABC-1; first compound 0.04 µM,0.699
same,relative viability,ABC-1; first compound 0.1265 µM,0.545
same,relative viability,ABC-1; first compound 0.4 µM,0.512
same,relative viability,ABC-1; first compound 1.265 µM,0.387
same,relative viability,ABC-1; first compound 4 µM,0.365
same,relative viability,EMC-BAC-2; first compound 0.04 µM,0.551
same,relative viability,EMC-BAC-2; first compound 0.1265 µM,0.499
same,relative viability,EMC-BAC-2; first compound 0.4 µM,0.565
same,relative viability,EMC-BAC-2; first compound 1.265 µM,0.27
same,relative viability,EMC-BAC-2; first compound 4 µM,0.26
same,relative viability,NCI-H838; first compound 0.04 µM,0.397
same,relative viability,NCI-H838; first compound 0.1265 µM,0.3
same,relative viability,NCI-H838; first compound 0.4 µM,0.319
same,relative viability,NCI-H838; first compound 1.265 µM,0.208
same,relative viability,NCI-H838; first compound 4 µM,0.232
same,relative viability,NCI-H2126; first compound 0.04 µM,0.484
same,relative viability,NCI-H2126; first compound 0.1265 µM,0.473
same,relative viability,NCI-H2126; first compound 0.4 µM,0.435
same,relative viability,NCI-H2126; first compound 1.265 µM,0.37
same,relative viability,NCI-H2126; first compound 4 µM,0.349
same,relative viability,NCI-H1993; first compound 0.04 µM,0.883
same,relative viability,NCI-H1993; first compound 0.1265 µM,0.788
same,relative viability,NCI-H1993; first compound 0.4 µM,0.888
same,relative viability,NCI-H1993; first compound 1.265 µM,0.635
same,relative viability,NCI-H1993; first compound 4 µM,0.846
same,relative viability,SK-LU-1; first compound 0.04 µM,0.581
same,relative viability,SK-LU-1; first compound 0.1265 µM,0.438
same,relative viability,SK-LU-1; first compound 0.4 µM,0.456
same,relative viability,SK-LU-1; first compound 1.265 µM,0.256
same,relative viability,SK-LU-1; first compound 4 µM,0.171
same,relative viability,HCC-366; first compound 0.04 µM,0.136
same,relative viability,HCC-366; first compound 0.1265 µM,0.156
same,relative viability,HCC-366; first compound 0.4 µM,0.131
same,relative viability,HCC-366; first compound 1.265 µM,0.153
same,relative viability,HCC-366; first compound 4 µM,0.196
same,relative viability,NCI-H358; first compound 0.04 µM,0.329
same,relative viability,NCI-H358; first compound 0.1265 µM,0.431
same,relative viability,NCI-H358; first compound 0.4 µM,0.376
same,relative viability,NCI-H358; first compound 1.265 µM,0.386
same,relative viability,NCI-H358; first compound 4 µM,0.336
same,relative viability,NCI-H23; first compound 0.04 µM,0.46
same,relative viability,NCI-H23; first compound 0.1265 µM,0.453
same,relative viability,NCI-H23; first compound 0.4 µM,0.447
same,relative viability,NCI-H23; first compound 1.265 µM,0.162
same,relative viability,NCI-H23; first compound 4 µM,0.183
same,relative viability,NCI-H2023; first compound 0.04 µM,0.234
same,relative viability,NCI-H2023; first compound 0.1265 µM,0.268
same,relative viability,NCI-H2023; first compound 0.4 µM,0.196
same,relative viability,NCI-H2023; first compound 1.265 µM,0.161
same,relative viability,NCI-H2023; first compound 4 µM,0.156
same,relative viability,NCI-H1944; first compound 0.04 µM,0.357
same,relative viability,NCI-H1944; first compound 0.1265 µM,0.332
same,relative viability,NCI-H1944; first compound 0.4 µM,0.311
same,relative viability,NCI-H1944; first compound 1.265 µM,0.288
same,relative viability,NCI-H1944; first compound 4 µM,0.307
same,relative viability,HCC-78; first compound 0.04 µM,0.212
same,relative viability,HCC-78; first compound 0.1265 µM,0.313
same,relative viability,HCC-78; first compound 0.4 µM,0.185
same,relative viability,HCC-78; first compound 1.265 µM,0.214
same,relative viability,HCC-78; first compound 4 µM,0.192
same,relative viability,NCI-H1793; first compound 0.04 µM,0.434
same,relative viability,NCI-H1793; first compound 0.1265 µM,0.391
same,relative viability,NCI-H1793; first compound 0.4 µM,0.564
same,relative viability,NCI-H1793; first compound 1.265 µM,0.339
same,relative viability,NCI-H1793; first compound 4 µM,0.453
same,relative viability,NCI-H1395; first compound 0.04 µM,0.652
same,relative viability,NCI-H1395; first compound 0.1265 µM,0.582
same,relative viability,NCI-H1395; first compound 0.4 µM,0.62
same,relative viability,NCI-H1395; first compound 1.265 µM,0.403
same,relative viability,NCI-H1395; first compound 4 µM,0.407
same,relative viability,NCI-H2228; first compound 0.04 µM,0.372
same,relative viability,NCI-H2228; first compound 0.1265 µM,0.327
same,relative viability,NCI-H2228; first compound 0.4 µM,0.259
same,relative viability,NCI-H2228; first compound 1.265 µM,0.245
same,relative viability,NCI-H2228; first compound 4 µM,0.201
same,relative viability,NCI-H2405; first compound 0.04 µM,0.536
same,relative viability,NCI-H2405; first compound 0.4 µM,0.405
same,relative viability,NCI-H2405; first compound 1.265 µM,0.263
same,relative viability,NCI-H2405; first compound 4 µM,0.221
same,relative viability,HCC-15; first compound 0.04 µM,0.67
same,relative viability,HCC-15; first compound 0.4 µM,0.663
same,relative viability,HCC-15; first compound 1.265 µM,0.366
same,relative viability,HCC-15; first compound 4 µM,0.343
same,relative viability,HARA; first compound 0.04 µM,0.505
same,relative viability,HARA; first compound 0.1265 µM,0.224
same,relative viability,HARA; first compound 0.4 µM,0.379
same,relative viability,HARA; first compound 1.265 µM,0.177
same,relative viability,HARA; first compound 4 µM,0.0809
same,relative viability,LC-2-ad; first compound 0.04 µM,0.386
same,relative viability,LC-2-ad; first compound 0.1265 µM,0.605
same,relative viability,LC-2-ad; first compound 0.4 µM,0.263
same,relative viability,LC-2-ad; first compound 1.265 µM,0.121
same,relative viability,LC-2-ad; first compound 4 µM,0.117
